Laboratory results: patent publication US20110212176A1, “CICLOPIROX AND CYTARABINE FOR THE TREATMENT OF LEUKEMIC DISORDERS” (priority 2008, published 2011)
Entries after “also recorded” stand apart in the source; their conditions may differ.

Experiments:
leukemia cell lines = assay: MTS cell viability assay in leukemia/lymphoma cell lines; format: cell-based; conditions: increasing concentrations, 72 hours
Procedure: Leukemia (HL-60, RSV411, k562, Jurkat, U937), LYMPHOMA (MDAY-D2), solid tumour cell lines (PPC-1, HeLa, OVCAR-3, DU-145, HT-29) and GMO5757 human lung fibroblasts were cultured in RPMI 1640 medium. HepG2 hepatoma cells and MRC5 human lung fibroblasts were grown in Dulbecco modified Eagle medium. OCI-M2, OCI-AML2 and NB4 leukemia cell lines and OPM2, KMS11, LP1, UTMC2, KSM18 and OCIMy5 myeloma cell lines were maintained in Iscove Modified Dulbecco Medium. LF1 human lung fibroblasts were maintained in HAM medium. All media were supplemented with 10% fetal calf serum, 100 μg/mL of penicillin, and 100 units/mL of streptomycin (all from Hyclone, Logan, Utah). The cells were incubated at 37° C. in a humidified air atmosphere supplemented with 5% CO2.
The CellTiter96 aqueous nonradioactive (MTS) assay was used to measure cell viability according to the manufacturer's instructions (Promega). Propidium iodide (PI) staining was used according to manufacturer's instructions (Biovision, Mountain view, Calif.).
From this chemical screen, the antimicrobial CPX was identified. CPX is currently used for the topical treatment of cutaneous fungal infections. As an anti-fungal agent, the mechanism of action of CPX is not well understood, but appears related to binding intracellular iron and inhibiting iron containing enzymes. […] 72 hours after incubation, cell viability was measured by the MTS assay. […]

[1] = tested on: OCI-AML2, K562 human leukemia cells and MDAY-D2 murine leukemia cells; format: in vivo; conditions: CPX 25 mg/kg daily by oral gavage; all 3 mouse models
Procedure: MDAY-D2 (MDAY) murine leukemia cells (5×10^5) were injected intra-peritoneal into NOD/SCID mice (Ontario Cancer Institute, Toronto, ON), OCI-AML2 and K562 cells (2×10^6) were injected subcutaneously into both flanks of sub-lethally irradiated (3.5 Gy) NOD/SCID mice. Mice were then treated daily by oral gavages with CPX (25 mg/kg) in PBS or vehicle control. Tumour volume (tumour length×width^2×0.5236) (Mol Cancer Ther. 2004; 3:1239-1248) was measured weekly using calipers. Eight (MDAY-D2), 11 (OCI-AML2) or 30 (K562) days after injection of cells, mice were sacrificed, and the volume and weight of the tumours was measured. All animal studies were carried out according to the regulations of the Canadian Council on Animal Care and with the approval of the local ethics review board.
Given the effects in leukemia cells lines, the effects of oral CPX was evaluated in 3 mouse models of leukemia. Sublethally irradiated NOD-SCID mice were injected subcutaneously with OCI-AML2 or K562 human leukemia cells or intraperitoneally with MDAY-D2 murine leukemia cells. […].

survivin promoter = assay: Survivin promoter luciferase reporter screen in HeLa cells; format: cell-based, human; conditions: 5 μM, 24 hours
Excerpt: The full-length survivin promoter (−1059 upstream of the initiating ATG) (NIEHS-SNPs, Environmental Genome Project, NIEHS ES15478, Department of Genome Sciences, Seattle, Wash.) was isolated from HeLa genomic DNA using the forward primer 5′-[…]-3′ (SEQ ID NO:1) and the reverse primer 5′-[…]-3′ (SEQ ID NO:2).
The promoter was sub-cloned into the GL4.20 firefly luciferase reporter vector (Promega Corporation, Madison, Wis.). Clones were sequence-verified for orientation and integrity using a CEQ 8000 Genetic Analysis System (Beckman, Mississauga, ON, Canada). […]
(A) HeLa cells stably overexpressing the survivin promoter driving luciferase (15000 cells/well) were plated in 96-well plates. […] After incubation, survivin promoter activity was assessed by the luciferase assay described below. […]
Luciferase activity was measured according to the manufacturer's instructions and as previously described (Promega, Madison, Wis.) (Mao Blood). […] After 10-minutes incubation, an equal volume of Bright-Glo Luciferase substrate (Promega) was added, and the luminescence signal was detected with a 96-well Luminoskan luminescence plate reader (Thermo Fisher Scientific, Waltham, Mass.) with 5-seconds integration time. […]

[2] = tested on: HeLa, PPC-1 and MDAY-D2 cells; assay: Cell cycle analysis by PI staining and flow cytometry; format: cell-based; conditions: 5 μM CPX; eighteen hours; prior to the onset of cell death
Procedure: (§1) FIG. 5: Cell cycle arrest, survivin decrease and p53 increase precede CPX induced cell death. A) HeLa, PPC-1 and MDAY-D2 cells were treated with 5 μM CPX or buffer control. Eighteen hours after incubation, cell cycle was analyzed by PI staining and Flow cytometry. B) NB4 and OCI-M2 cell lines were incubated with CPX (5 μM) for 48 hours. After incubation cells were harvested and nuclear proteins were isolated. Levels of p53 and the nuclear protein glucocorticoid receptor (GR) were measured by immunoblotting. C) Solid tumor (OVCAR3, HT-29, HepG2, DU145, HeLa) and leukemia (OCI-M2, OCI-AML2, NB4, HL-6) cell lines were treated with CPX (2.5 μM) or buffer control for 48 hours. After incubation, total protein was isolated. Levels of survivin and GAPDH were measured by immunoblotting.
Cell-cycle analysis was performed as previously described (Blood 112(3):760). Briefly, cells were harvested, washed with cold PBS, re-suspended in 70% cold ethanol, and incubated overnight at −20° C. Cells were then treated with 100 ng/mL of DNase-free RNase (Invitrogen, Carlsbad, Calif.) at 37° C. for 30 minutes, washed with cold PBS, and re-suspended in PBS with 50 μg/mL of PI (Sigma). DNA content was analyzed by flow cytometry (FACSCalibur; BD Biosciences, San Jose, Calif.).

[3] = tested on: survivin, Cyclin D1, YY1 and FTII-D; assay: Immunoblotting of protein expression after CPX treatment; format: cell-based; conditions: prior to the onset of cell death
Procedure: as §1
Total cell lysates were prepared from cells. […] Protein concentrations were measured by the Bradford assay (Anal Biochem. 1996; 236:221-228). […]
Membranes were probed with polyclonal rabbit anti-human survivin (1 μg/mL) (NOVUS), monoclonal mouse anti-human p53 (0.5 μg/mL), polyclonal rabbit anti-human GR (0.5 μg/mL) both from (Santa Cruz Biotechnologies, CA), or with mouse anti-human GADPH (Trevigen, Gaithersburg, Md.). […] Detection was performed by the enhanced chemical luminescence method (Pierce, Rockford, Ill.).

Cc1cc(C2CCCCC2)n(O)c(=O)c1 [CPX, 6-Cyclohexyl-1-hydroxy-4-methyl-2(1H)-pyridone]
effect on cell viability (leukemia cell lines): decreased cell viability in all leukemia cell lines tested; also recorded: decreased cell viability in all leukemia and lymphoma cell lines
decrease in tumor volume compared to control [1]: up to 65%
decrease in tumor weight compared to control [1]: up to 65%
inhibition of survivin transactivation (luciferase expression) (survivin promoter): inhibitor of survivin transactivation
cell cycle effect [2]: arrested cells in the G1/S phase of the cell cycle
effect on protein expression [3]: down-regulated the expression of survivin, Cyclin D1, and the transcription factors YY1 and FTII-D
